Results taken from US9546138B2, “Pyridone derivatives and uses thereof in the treatment of tuberculosis” (priority 2012, dated 2017).
≈ marks a conversion by molar mass, not a printed value. Where two headings read alike, the source gives them in different places.

Experiments:
Experiment in all cases: microbe, parasite or virus in culture
Format in all cases: cell-based
[1] = test system: Mycobacterium tuberculosis H37Rv (ATCC #27294)
M. smeg WT (WT inhA) = settings: Mycolicibacterium smegmatis, strain M. smeg WT, read-out: Compound MIC50
BCG WT (WT inhA) = settings: Mycobacterium tuberculosis variant bovis BCG, read-out: Compound MIC50

Compound `CC1(C)CCC(Cc2cc(OP(=O)(O)O)c(-c3ccccc3)c(=O)[nH]2)CC1` [PD22, 6-((4,4-dimethylcyclohexyl)methyl)-2-oxo-3-phenyl-1,2-dihydropyridin-4-yl dihydrogen phosphate] has an MIC50 ([1]; 120 h, read-out: MTB MIC50) of 1.72 µM.
For `O=c1[nH]c(CC2CCCC2)cc(O)c1-c1ccccc1` [PD4, 6-(cyclopentylmethyl)-4-hydroxy-3-phenylpyridin-2(1H)-one], the MIC50 ([1]; 120 h, read-out: MTB MIC50) was 0.92 µM (≈ 0.248 µg/mL).
`O=c1[nH]c(CC2CCOCC2)cc(O)c1-c1ccccc1` [PD6, 4-hydroxy-3-phenyl-6-((tetrahydro-2H-pyran-4-yl)methyl)pyridin-2(1H)-one] gave an MIC50 ([1]; 120 h, read-out: MTB MIC50) of 10.1 µM (≈ 2.88 µg/mL).
For `CC(C)Cc1cc(O)c(-c2cccc(Cl)c2)c(=O)[nH]1` [PD14, 3-(3-chlorophenyl)-4-hydroxy-6-isobutylpyridin-2(1H)-one], the MIC50 ([1]; 120 h, read-out: MTB MIC50) was 2.67 µM (≈ 0.742 µg/mL).
With `CC(C)Cc1cc(O)c(-c2ccccc2)c(=O)[nH]1` [PD12, 4-hydroxy-6-isobutyl-3-phenylpyridin-2(1H)-one] the MIC50 (M. smeg WT (WT inhA)) was 0.67 µM (≈ 0.163 µg/mL), the MIC50 ([1]; 120 h, read-out: MTB MIC50) was 1.9 µM (≈ 0.462 µg/mL) and the MIC50 ([1]; read-out: Compound MIC50) was 1.54 µM (≈ 0.375 µg/mL). It also gave an MIC50 (BCG WT (WT inhA); strain BCG WT, WT inhA) of 0.37 µM (≈ 0.09 µg/mL).
`CC(C)Cc1cc(O)c(-c2ccccc2)c(=O)n1C` [PD19, 4-hydroxy-6-isobutyl-1-methyl-3-phenylpyridin-2(1H)-one] gave an MIC50 ([1]; 120 h, read-out: MTB MIC50) of 8.14 µM (≈ 2.09 µg/mL).
Work on `CC(C)Cc1cc(O)c(-c2ccc(F)cc2F)c(=O)[nH]1` [PD17, 3-(2,4-difluorophenyl)-4-hydroxy-6-isobutylpyridin-2(1H)-one] yielded an MIC50 ([1]; 120 h, read-out: MTB MIC50) of 9.18 µM (≈ 2.56 µg/mL).
In the case of `CC1(C)CCC(Cc2cc(OCOP(=O)(O)O)c(-c3ccccc3)c(=O)[nH]2)CC1` [PD21, ((6-((4,4-dimethylcyclohexyl)methyl)-2-oxo-3-phenyl-1,2-dihydropyridin-4-yl)oxy)methyl dihydrogen phosphate], the MIC50 ([1]; 120 h, read-out: MTB MIC50) is reported as 3.99 µM.
Work on `CC(C)Cc1cc(O)c(-c2ccc(F)cc2)c(=O)[nH]1` [PD15, 3-(4-fluorophenyl)-4-hydroxy-6-isobutylpyridin-2(1H)-one] yielded an MIC50 ([1]; 120 h, read-out: MTB MIC50) of 6.75 µM (≈ 1.76 µg/mL).
`CC(C)CCc1cc(O)c(-c2ccccc2)c(=O)[nH]1` [PD7, 4-hydroxy-6-isopentyl-3-phenylpyridin-2(1H)-one] gave an MIC50 ([1]; 120 h, read-out: MTB MIC50) of 1.51 µM (≈ 0.389 µg/mL).
Compound `CC(C)Cc1cc(O)c(-c2cccc(F)c2)c(=O)[nH]1` [PD18, 3-(3-fluorophenyl)-4-hydroxy-6-isobutylpyridin-2(1H)-one] has an MIC50 ([1]; 120 h, read-out: MTB MIC50) of 2.69 µM (≈ 0.703 µg/mL).
`CC(C)Cc1[nH]c(=O)c(-c2ccccc2)c(O)c1C(N)=O` [PD13, 4-hydroxy-2-isobutyl-6-oxo-5-phenyl-1,6-dihydropyridine-3-carboxamide] showed an MIC50 ([1]; 120 h, read-out: MTB MIC50) of 18.7 µM (≈ 5.35 µg/mL).
`O=c1[nH]c(Cc2ccccc2)cc(O)c1-c1ccccc1` [PD1, 6-benzyl-4-hydroxy-3-phenylpyridin-2(1H)-one] gave an MIC50 ([1]; 120 h, read-out: MTB MIC50) of 1.4 µM (≈ 0.388 µg/mL).
`CCc1cc(C(N)=S)ccn1` [Ethionamide, reference compound] was tested, and the MIC50 (M. smeg WT (WT inhA)) was greater than 20 µM, the MIC50 ([1]; read-out: Compound MIC50) was 1.66 µM (≈ 0.276 µg/mL) and the MIC50 (BCG WT (WT inhA); BCG) was 17 µM (≈ 2.83 µg/mL).
`O=c1[nH]c(CC2CCC2)cc(O)c1-c1ccccc1` [PD5, 6-(cyclobutylmethyl)-4-hydroxy-3-phenylpyridin-2(1H)-one] showed an MIC50 ([1]; 120 h, read-out: MTB MIC50) of 1.19 µM (≈ 0.304 µg/mL).
`O=c1[nH]c(CC2CCCCC2)cc(O)c1-c1ccccc1` [PD2, 6-(cyclohexylmethyl)-4-hydroxy-3-phenylpyridin-2(1H)-one] showed an MIC50 ([1]; 120 h, read-out: MTB MIC50) of 0.22 µM (≈ 0.0623 µg/mL) and an MIC50 ([1]; read-out: Compound MIC50) of 0.16 µM (≈ 0.0453 µg/mL).
In the case of `O=c1[nH]c(CC2CC2)cc(O)c1-c1ccccc1` [PD3, 6-(cyclopropylmethyl)-4-hydroxy-3-phenylpyridin-2(1H)-one], the MIC50 ([1]; 120 h, read-out: MTB MIC50) is reported as 4.53 µM (≈ 1.09 µg/mL).
`O=c1[nH]c(CC2CCC(F)(F)CC2)cc(O)c1-c1ccccc1` [PD9, 6-((4,4-difluorocyclohexyl)methyl)-4-hydroxy-3-phenylpyridin-2(1H)-one] gave an MIC50 ([1]; 120 h, read-out: MTB MIC50) of 1.32 µM (≈ 0.422 µg/mL).
In the case of `O=c1[nH]c(Cc2ccncc2)cc(O)c1-c1ccccc1` [PD11, 4-hydroxy-3-phenyl-6-(pyridin-4-ylmethyl)pyridin-2(1H)-one], the MIC50 ([1]; 120 h, read-out: MTB MIC50) is reported as 6.08 µM (≈ 1.69 µg/mL).
`CC1(C)CCC(Cc2cc(O)c(-c3ccccc3)c(=O)[nH]2)CC1` [PD10, 6-((4,4-dimethylcyclohexyl)methyl)-4-hydroxy-3-phenylpyridin-2(1H)-one] was tested, and the MIC50 (M. smeg WT (WT inhA)) was 0.4 µM (≈ 0.125 µg/mL), the MIC50 ([1]; 120 h, read-out: MTB MIC50) was 0.02 µM (≈ 0.00623 µg/mL) and the MIC50 ([1]; read-out: Compound MIC50) was 0.05 µM (≈ 0.0156 µg/mL). It also gave an MIC50 (BCG WT (WT inhA); strain BCG WT, WT inhA) of 0.02 µM (≈ 0.00623 µg/mL).
For `NNC(=O)c1ccncc1` [Isoniazid, isoniazid, reference compound], the MIC50 (M. smeg WT (WT inhA)) was greater than 20 µM, the MIC50 ([1]; read-out: Compound MIC50) was 0.25 µM (≈ 0.0343 µg/mL) and the MIC50 (BCG WT (WT inhA); strain BCG WT, WT inhA) was 0.3 µM (≈ 0.0411 µg/mL).
`CC(C)(C)Cc1cc(O)c(-c2ccccc2)c(=O)[nH]1` [PD8, 4-hydroxy-6-neopentyl-3-phenylpyridin-2(1H)-one] was tested, and the MIC50 ([1]; 120 h, read-out: MTB MIC50) was 10 µM (≈ 2.58 µg/mL).
